Tests used:
Digitaria sanguinalis [1] = test: Pre-emergence herbicidal activity against Digitaria sanguinalis (hairy crabgrass) assessed as growth inhibition at 150 ai g/ha after 20 days by green house test; type: functional
Echinochloa crus-galli [2] = test: Post-emergence herbicidal activity against Echinochloa crus-galli (barnyard grass) assessed as growth inhibition at 450 ai g/ha after 20 days by green house test; type: functional
Digitaria sanguinalis [3] = test: Pre-emergence herbicidal activity against Digitaria sanguinalis (hairy crabgrass) assessed as growth inhibition at 75 ai g/ha after 20 days by green house test; type: functional
Chenopodium album [4] = test: Post-emergence herbicidal activity against Chenopodium album assessed as growth inhibition at 150 ai g/ha after 20 days by green house test; type: functional
[5] = Toxicity against Oryza sativa (rice) assessed as growth inhibition at 450 ai g/ha post-emergent application measured after 20 days by green house crop selectivity test; type: organism-based; settings: in vivo, read-out: GI
[6] = biological target: T1, Pyruvate dehydrogenase complex (Pisum sativum) (UniProt P52902+P52904); test: Inhibition of PDHc in Pisum sativum Zhongwan-2 (pea) shoot mitochondria assessed as decrease in rate of NADH formation using sodium pyruvate as substrate at 0.1 microg/g preincubated for 25 min before substrate addition measured after 1 min by spectrophotometric assay; type: protein-complex assay; settings: Lathyrus oleraceus
[7] = biological target: T1, Pyruvate dehydrogenase complex (Pisum sativum); test: Inhibition of PDHc in Pisum sativum Zhongwan-2 (pea) shoot mitochondria assessed as decrease in rate of NADH formation using sodium pyruvate as substrate at 1 microg/g preincubated for 25 min before substrate addition measured after 1 min by spectrophotometric assay; type: protein-complex assay; settings: Lathyrus oleraceus
[8] = biological target: T1, Pyruvate dehydrogenase complex (Pisum sativum); test: Inhibition of PDHc in Pisum sativum Zhongwan-2 (pea) shoot mitochondria assessed as decrease in rate of NADH formation using sodium pyruvate as substrate at 10 microg/g preincubated for 25 min before substrate addition measured after 1 min by spectrophotometric assay; type: protein-complex assay; settings: Lathyrus oleraceus
Medicago sativa [9] = test: Post-emergence herbicidal activity against Medicago sativa (alfalfa) assessed as growth inhibition at 1500 ai g/ha after 20 days by green house test; type: functional
Digitaria sanguinalis [10] = test: Post-emergence herbicidal activity against Digitaria sanguinalis (hairy crabgrass) assessed as growth inhibition at 1500 ai g/ha after 20 days by green house test; type: functional
Setaria viridis [11] = test: Pre-emergence herbicidal activity against Setaria viridis (green foxtail) assessed as growth inhibition at 75 ai g/ha after 20 days by green house test; type: functional
Amaranthus retroflexus = test: Post-emergence herbicidal activity against Amaranthus retroflexus assessed as growth inhibition at 1500 ai g/ha after 20 days by green house test; type: functional
[12] = system: Brassica rapa subsp. oleifera; test: Post-emergence herbicidal activity against Brassica rapa subsp. oleifera Si Yue Man assessed as growth inhibition at 1500 ai g/ha after 20 days by green house test; type: functional
Pisum sativum = test: Post-emergence herbicidal activity against Pisum sativum Zhongwan-2 (pea) assessed as growth inhibition at 450 ai g/ha after 20 days by green house test; settings: Lathyrus oleraceus
Chenopodium album [13] = test: Post-emergence herbicidal activity against Chenopodium album assessed as growth inhibition at 75 ai g/ha after 20 days by green house test; type: functional
Abutilon theophrasti = test: Pre-emergence herbicidal activity against Abutilon theophrasti (velvetleaf) assessed as growth inhibition at 150 ai g/ha after 20 days by green house test; type: functional
Chenopodium album [14] = test: Pre-emergence herbicidal activity against Chenopodium album assessed as growth inhibition at 150 ai g/ha after 20 days by green house test; type: functional
Setaria viridis [15] = test: Pre-emergence herbicidal activity against Setaria viridis (green foxtail) assessed as growth inhibition at 450 ai g/ha after 20 days by green house test; type: functional
Digitaria sanguinalis [16] = test: Pre-emergence herbicidal activity against Digitaria sanguinalis (hairy crabgrass) assessed as growth inhibition at 450 ai g/ha after 20 days by green house test; type: functional
Digitaria sanguinalis [17] = test: Post-emergence herbicidal activity against Digitaria sanguinalis (hairy crabgrass) assessed as growth inhibition at 150 ai g/ha after 20 days by green house test; type: functional
Cucumis sativus [18] = test: Herbicidal activity against Cucumis sativus Jin 4 (cucumber) assessed as inhibition of root growth after 3 days; type: functional, organism-based; settings: Jin 4, 72 h
Cucumis sativus [19] = test: Herbicidal activity against Cucumis sativus Jin 4 (cucumber) assessed as inhibition of stem growth after 3 days; type: functional, organism-based; settings: Jin 4, 72 h
[20] = Toxicity against Zea mays Gao you 1 (maize) assessed as growth inhibition at 225 ai g/ha post-emergent application measured after 20 days by green house crop selectivity test; type: organism-based; settings: Gao you 1, zea mays, in vivo, read-out: GI
Daucus carota [21] = test: Post-emergence herbicidal activity against Daucus carota (carrot) assessed as growth inhibition at 37.5 ai g/ha after 20 days by green house test; type: functional
Oryza sativa = test: Inhibition of PDHc in Oryza sativa (rice) shoot mitochondria assessed as decrease in rate of NADH formation using sodium pyruvate as substrate at 1000 microg/g preincubated for 25 min before substrate addition measured after 1 min by spectrophotometric assay
Medicago sativa [22] = test: Post-emergence herbicidal activity against Medicago sativa (alfalfa) assessed as growth inhibition at 300 ai g/ha after 20 days by green house test; type: functional
Xanthium strumarium = test: Post-emergence herbicidal activity against Xanthium strumarium (cocklebur) assessed as growth inhibition at 300 ai g/ha after 20 days by green house test; type: functional
[23] = Toxicity against Zea mays Gao you 1 (maize) assessed as growth inhibition at 300 ai g/ha post-emergent application measured after 20 days by green house crop selectivity test; type: organism-based; settings: Gao you 1, zea mays, in vivo, read-out: GI
[24] = Inhibition of PDHc in Oryza sativa (rice) shoot mitochondria assessed as decrease in rate of NADH formation using sodium pyruvate as substrate preincubated for 25 min before substrate addition measured after 1 min by spectrophotometric assay
Eclipta prostrata = test: Post-emergence herbicidal activity against Eclipta prostrata assessed as growth inhibition at 150 ai g/ha after 20 days by green house test; type: functional
Medicago sativa [25] = test: Post-emergence herbicidal activity against Medicago sativa (alfalfa) assessed as growth inhibition at 18.75 ai g/ha after 20 days by green house test; type: functional
Echinochloa crus-galli [26] = test: Post-emergence herbicidal activity against Echinochloa crus-galli (barnyard grass) assessed as growth inhibition at 225 ai g/ha after 20 days by green house test; type: functional
[27] = Toxicity against Oryza sativa (rice) assessed as growth inhibition at 225 ai g/ha post-emergent application measured after 20 days by green house crop selectivity test; type: organism-based; settings: in vivo, read-out: GI
Daucus carota [28] = test: Post-emergence herbicidal activity against Daucus carota (carrot) assessed as growth inhibition at 450 ai g/ha after 20 days by green house test; type: functional
Daucus carota [29] = test: Post-emergence herbicidal activity against Daucus carota (carrot) assessed as growth inhibition at 150 ai g/ha after 20 days by green house test; type: functional
Medicago sativa [30] = test: Post-emergence herbicidal activity against Medicago sativa (alfalfa) assessed as growth inhibition at 37.5 ai g/ha after 20 days by green house test; type: functional
Portulaca oleracea [31] = test: Post-emergence herbicidal activity against Portulaca oleracea assessed as growth inhibition at 37.5 ai g/ha after 20 days by green house test; type: functional
Medicago sativa [32] = test: Post-emergence herbicidal activity against Medicago sativa (alfalfa) assessed as growth inhibition at 75 ai g/ha after 20 days by green house test; type: functional
Portulaca oleracea [33] = test: Post-emergence herbicidal activity against Portulaca oleracea assessed as growth inhibition at 75 ai g/ha after 20 days by green house test; type: functional

Compound | growth inhibition (GI) (Digitaria sanguinalis [1]) | growth inhibition (GI) (Echinochloa crus-galli [2]) | growth inhibition (GI) (Digitaria sanguinalis [3]) | growth inhibition (GI) (Chenopodium album [4]) | inhibition at 480 h [5] | inhibition [6] | inhibition [7] | inhibition [8] | growth inhibition (GI) (Medicago sativa [9]) | growth inhibition (GI) (Digitaria sanguinalis [10]) | growth inhibition (GI) (Setaria viridis [11]) | growth inhibition (GI) (Amaranthus retroflexus) | growth inhibition (GI) [12] | growth inhibition (GI) (Pisum sativum) | growth inhibition (GI) (Chenopodium album [13]) | growth inhibition (GI) (Abutilon theophrasti) | growth inhibition (GI) (Chenopodium album [14]) | growth inhibition (GI) (Setaria viridis [15]) | growth inhibition (GI) (Digitaria sanguinalis [16]) | growth inhibition (GI) (Digitaria sanguinalis [17]) | also measured
COP(=O)(COC(=O)COc1cccc(C(F)(F)F)c1)OC | 0% | 0% | 0% | 42.5% | 32.5% | 11.5% | 22.9% | 31.1% | 90% | <=50% | 0% | <=50% | 90% | 10% | 32.5% | 0% | 0% | 35% | 35% | 0% | 
O=C(O)COc1ccc(Cl)cc1Cl [2,4-DICHLOROPHENOXYACETIC ACID] | 10% | 35% | 0% | 92.5% | 37.5% | 8.8% | 12.9% | 18.5% | 90% | 50% | 0% | 90% | 90% |  | 72.5% | 0% | 0% | 67.5% | 65% | 0% | IC50 (Cucumis sativus [18]): 0.228 µM; IC50 (Cucumis sativus [19]): 10.1 µM
COP(=O)(OC)C(C)OC(=O)COc1ccc(Cl)cc1Cl (stereo not given) [CLACYFOS] | 0% | 35% | 0% | 96% | 0% | 31.1% | 44.3% | 50.8% | 90% | 50% | 0% | 90% | 90% | 97.5% | 92.5% | 0% | 0% | 35% | 45% | 0% | inhibition at 480 h [20]: 0%; growth inhibition (GI) (Daucus carota [21]): 85%; IC50 (Cucumis sativus [18]): 0.0025 µM; inhibition (Oryza sativa): 55.1%; growth inhibition (GI) (Medicago sativa [22]): 97%; growth inhibition (GI) (Xanthium strumarium): 100%; inhibition at 480 h [23]: 0%; IC50 [24]: 867 µM; growth inhibition (GI) (Eclipta prostrata): 90%; IC50 (Cucumis sativus [19]): 7.56 µM; growth inhibition (GI) (Medicago sativa [25]): 60%; growth inhibition (GI) (Echinochloa crus-galli [26]): 10%; inhibition at 480 h [27]: 0%; growth inhibition (GI) (Daucus carota [28]): 100%; growth inhibition (GI) (Daucus carota [29]): 95%; growth inhibition (GI) (Medicago sativa [30]): 72%; growth inhibition (GI) (Portulaca oleracea [31]): 65%; growth inhibition (GI) (Medicago sativa [32]): 84%; growth inhibition (GI) (Portulaca oleracea [33]): 75%

— ChEMBL document CHEMBL3045592, “Studies of O,O-dimethyl α-(2,4-dichlorophenoxyacetoxy)ethylphosphonate (HW02) as a new herbicide. 1. Synthesis and herbicidal activity of HW02 and analogues as novel inhibitors of pyruvate dehydrogenase complex” (J Agric Food Chem, 2011)
